Data reported in patent publication US20240398812A1 (Caraway Therapeutics, Inc., priority 2021, published 2024).

What was measured:
human TRPML1 = human TRPML1 (Homo sapiens, UniProt Q9GZU1); test: Fluorescent TRPML1 assay (Fluo4-AM calcium fluorescence, HEK-293 Trex cells); assay type: cell-based
Protocol: (§1) HEK-293 Trex cells were stably transfected with a construct consisting of the human coding sequence for TRPML1 cloned into the tet-inducible plasmid pCDNA5 T/O. Mutations were introduced into the TRPML1 sequence to facilitate expression on the cell surface (Silvia Vergarajauregui, Rosa Puertollano Traffic. 2006 March; 7 (3): 337-353). Briefly, the cells are cultured in 150 mm round tissue culture dishes containing 20 mL of media. The day before the assay the cells are rinsed with DPBS —Ca—Mg and then treated briefly with Trypsin-EDTA. The Trypsin-EDTA is diluted with growth media, and cells are counted. 38×10^6 cells are re-plated into 150 mm round tissue culture dishes in media containing 0.5 ug/mL doxycycline to induce expression of hTRPML1.
(§2) The day of the experiment cells are lifted from the plates as above and collected by centrifugation. The cells are then suspended in dye loading buffer consisting of Ringer's solution supplemented with 0.1% Pluronic Acid and 1 micromolar Fluo4-AM dye. Cells are loaded for ˜60 minutes in the dark with occasional mixing. The cells are collected by centrifugation, the loading media aspirated, and the cells resuspended in 25 mL Ringer's solution and incubated ˜60 minutes in the dark. The cells are again collected by centrifugation, rinsed in Ringer's Solution and resuspended to 0.2×10^6 cells/mL in modified Ringer's solution containing 10 mM calcium.
(§3) Compounds are dissolved to a concentration of 10 millimolar with DMSO. Compound plates are created by dispensing compounds into 384 well black wall clear bottom plates (Greiner 781091). Positive and negative controls are included on each plate. Typically, different amounts of each compound are tested ranging from 100 nanoMoles (20 micromolar final concentration) decreasing in half-log steps to 31 picoMoles (6 nanomolar final concentration). Each concentration is typically tested in triplicate.
(§4) 50 microliters of dye-loaded cells are dispensed into each well of the compound assay plate created above. The fluorescence in each well is then determined with an excitation wavelength of 480 nm and an emission wavelength of 540 nm using either a Molecular Devices SpectraMax multimode plate reader or a Hamamatsu FDSS/uCell plate imager.
(§5) The resulting fluorescence for each well is exported as an ascii file and loaded into our LIMS for analysis. The percent activity of each compound at each concentration is determined by comparison to the positive and negative control wells included in each plate.
(§6) EC50 values were calculated using a non-linear regression of Prism. In the table, “A” indicates an EC50 of less than 100 nM, “B” indicates an EC50 range from 100 nM to 500 nM; “C” indicates an EC50 range from 500 nM to 2 μM; and “D” indicates an EC50 greater than 2 μM.

TRPML3 = target: T1, TRPML3 (Homo sapiens, UniProt Q8TDD5); test: Fluorescent TRPML3 assay (as for TRPML1); assay type: cell-based
T1 construct: expressed in transfected cells
T1 sequence (Q8TDD5 1-553): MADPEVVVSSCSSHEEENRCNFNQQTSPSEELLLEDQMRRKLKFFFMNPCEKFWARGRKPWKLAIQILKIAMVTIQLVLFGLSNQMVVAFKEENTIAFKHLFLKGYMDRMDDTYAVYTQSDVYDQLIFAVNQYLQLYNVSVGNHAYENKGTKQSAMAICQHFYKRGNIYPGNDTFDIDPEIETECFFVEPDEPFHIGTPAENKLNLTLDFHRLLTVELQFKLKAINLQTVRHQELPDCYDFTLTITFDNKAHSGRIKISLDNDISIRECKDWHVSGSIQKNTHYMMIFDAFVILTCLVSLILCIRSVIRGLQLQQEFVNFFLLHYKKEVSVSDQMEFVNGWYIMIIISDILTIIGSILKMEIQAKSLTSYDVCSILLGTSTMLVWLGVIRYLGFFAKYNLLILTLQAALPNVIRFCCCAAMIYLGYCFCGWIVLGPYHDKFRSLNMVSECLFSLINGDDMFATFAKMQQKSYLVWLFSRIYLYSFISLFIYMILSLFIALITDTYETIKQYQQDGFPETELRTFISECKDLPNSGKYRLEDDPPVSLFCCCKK
Protocol: as §1, §2, §3, §4, §5
Assays for TRPML2 and TRPML3 were performed as above for TRPML1, by substituting the appropriate TRPML2 or TRPML3 subtype for the TRPML1.
as §6

Sequence of human TRPML1 (Q9GZU1 whole entry L15A/L16A/L577A/L578A, form open): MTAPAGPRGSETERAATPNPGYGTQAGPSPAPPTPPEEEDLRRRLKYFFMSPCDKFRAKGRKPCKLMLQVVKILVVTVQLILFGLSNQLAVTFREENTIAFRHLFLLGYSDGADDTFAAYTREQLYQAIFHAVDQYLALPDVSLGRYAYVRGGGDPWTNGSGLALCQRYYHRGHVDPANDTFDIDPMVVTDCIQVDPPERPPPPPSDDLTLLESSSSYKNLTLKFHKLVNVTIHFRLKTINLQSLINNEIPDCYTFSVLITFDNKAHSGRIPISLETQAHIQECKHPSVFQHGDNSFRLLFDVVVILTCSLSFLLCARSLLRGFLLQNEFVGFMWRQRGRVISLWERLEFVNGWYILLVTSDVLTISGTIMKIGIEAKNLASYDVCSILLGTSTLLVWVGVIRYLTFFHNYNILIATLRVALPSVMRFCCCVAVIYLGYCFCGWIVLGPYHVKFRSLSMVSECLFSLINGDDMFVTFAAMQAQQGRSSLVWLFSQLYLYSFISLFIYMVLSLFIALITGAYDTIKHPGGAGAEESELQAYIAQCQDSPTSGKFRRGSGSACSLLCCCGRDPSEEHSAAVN

EC50 (human TRPML1; Table 3, compounds 101-177) [nM] | EC50 (TRPML3; Table 3, compounds 101-177) [nM] | EC50 (human TRPML1; Table 3, compounds 201-283) [nM] | EC50 (TRPML3; Table 3, compounds 201-283) [nM] | SMILES
– | – | < 100 | 500 to 2000 | Cc1cn(-c2cc(F)ccn2)c2ncnc(N3C[C@@H](C)N(C(=O)C(C)(C)C)C[C@@H]3C)c12 [Compound 244, 1-((2R,5S)-4-(7-(4-fluoropyridin-2-yl)-5-methyl-7H-pyrrolo[2,3-d]pyrimidin-4-yl)-2,5-dimethylpiperazin-1-yl)-2,2-dimethylpropan-1-one]
– | – | < 100 | < 100 | CC(C)C(=O)N1CCN(c2ncnc3c2c(N2CCC2)cn3-c2cc(C#N)ccn2)C[C@H]1C [Compound 273, (R)-2-(5-(azetidin-1-yl)-4-(4-isobutyryl-3-methylpiperazin-1-yl)-7H-pyrrolo[2,3-d]pyrimidin-7-yl)isonicotinonitrile]
– | – | > 2000 | > 2000 | CC(C)C(=O)N1C[C@H](C)N(c2ncnc3c2c(C2CCC2)cn3-c2cccc(F)c2)C[C@H]1C [Compound 248, 1-((2R,5S)-4-(5-cyclobutyl-7-(3-fluorophenyl)-7H-pyrrolo[2,3-d]pyrimidin-4-yl)-2,5-dimethylpiperazin-1-yl)-2-methylpropan-1-one]
– | – | < 100 | < 100 | COC(C)(C)C(=O)N1CCN(c2ncnc3c2c(C2CC2)cn3-c2cc(C#N)ccn2)[C@@H](C)C1 [Compound 241, (S)-2-(5-cyclopropyl-4-(4-(2-methoxy-2-methylpropanoyl)-2-methylpiperazin-1-yl)-7H-pyrrolo[2,3-d]pyrimidin-7-yl)isonicotinonitrile]
– | – | 100 to 500 | – | CC(C)C(=O)N1C[C@H](C)N(c2ncnc3c2c(C2CCC2)cn3-c2cc(C#N)ccn2)C[C@H]1C [Compound 238, 2-(5-cyclobutyl-4-((2S,5R)-4-isobutyryl-2,5-dimethylpiperazin-1-yl)-7H-pyrrolo[2,3-d]pyrimidin-7-yl)isonicotinonitrile]
– | – | 100 to 500 | – | CC(C)C(=O)N1C[C@H](C)N(c2ncnc3c2c(-c2ccccc2F)cn3-c2cc(C#N)ccn2)C[C@H]1C (single isomer, unassigned) [Compound 281]
– | – | < 100 | – | CC(C)C(=O)N1C[C@H](C)N(c2ncnc3c2c(-c2ccccc2F)cn3-c2cc(C#N)ccn2)C[C@H]1C (single isomer, unassigned) [Compound 234]

The remaining lines, values behind:

SMILES | EC50 (human TRPML1; Table 3, compounds 101-177) [nM] | EC50 (TRPML3; Table 3, compounds 101-177) [nM] | EC50 (human TRPML1; Table 3, compounds 201-283) [nM] | EC50 (TRPML3; Table 3, compounds 201-283) [nM]
C[C@H]1CN(C(=O)C2(C)CC2)CCN1c1ncnc2c1c(-c1ccccn1)cn2-c1cc(C#N)ccn1 [Compound 127, (S)-2-(4-(2-methyl-4-(1-methylcyclopropane-1-carbonyl)piperazin-1-yl)-5-(pyridin-2-yl)-7H-pyrrolo[2,3-d]pyrimidin-7-yl)isonicotinonitrile] | 500 to 2000 | > 2000 | – | –
Cc1nccnc1-c1cn(-c2cccc(Cl)c2)c2ncnc(N3C[C@@H](C)N(C(=O)CC(C)C)C[C@@H]3C)c12 [Compound 176, 1-((2R,5S)-4-(7-(3-chlorophenyl)-5-(3-methylpyrazin-2-yl)-7H-pyrrolo[2,3-d]pyrimidin-4-yl)-2,5-dimethylpiperazin-1-yl)-3-methylbutan-1-one] | 500 to 2000 | > 2000 | – | –
C[C@@H]1CN(c2ncnc3c2c(C2CC2)cn3-c2cc(F)cc(F)c2)[C@@H](C)CN1C(=O)C(C)(C)C [Compound 205, 1-((2R,5S)-4-(5-cyclopropyl-7-(3,5-difluorophenyl)-7H-pyrrolo[2,3-d]pyrimidin-4-yl)-2,5-dimethylpiperazin-1-yl)-2,2-dimethylpropan-1-one] | – | – | < 100 | 100 to 500
C[C@@H]1CN(c2ncnc3c2c(C(F)(F)F)cn3-c2cc(F)cc(F)c2)[C@@H](C)CN1C(=O)C(C)(C)C [Compound 225, 1-((2R,5S)-4-(7-(3,5-difluorophenyl)-5-(trifluoromethyl)-7H-pyrrolo[2,3-d]pyrimidin-4-yl)-2,5-dimethylpiperazin-1-yl)-2,2-dimethylpropan-1-one] | – | – | < 100 | 100 to 500
C[C@@H]1CN(c2ncnc3c2c(-c2ccccc2)cn3-c2cc(C#N)ccn2)CCN1C(=O)C1CC1 [Compound 124, (R)-2-(4-(4-(cyclopropanecarbonyl)-3-methylpiperazin-1-yl)-5-phenyl-7H-pyrrolo[2,3-d]pyrimidin-7-yl)isonicotinonitrile] | 100 to 500 | 100 to 500 | – | –
CC(C)C(=O)N1CCN(c2ncnc3c2c(N2CCCC2)cn3-c2cc(C#N)ccn2)C[C@H]1C [Compound 148, (R)-2-(4-(4-isobutyryl-3-methylpiperazin-1-yl)-5-(pyrrolidin-1-yl)-7H-pyrrolo[2,3-d]pyrimidin-7-yl)isonicotinonitrile] | 500 to 2000 | 100 to 500 | – | –
CC(F)C(=O)N1CCN(c2ncnc3c2c(-c2ccccc2F)cn3-c2cc(C#N)ccn2)[C@@H](C)C1 (stereo partly drawn) [Compound 113, 2-(5-(2-fluorophenyl)-4-((2S)-4-(2-fluoropropanoyl)-2-methylpiperazin-1-yl)-7H-pyrrolo[2,3-d]pyrimidin-7-yl)isonicotinonitrile] | < 100 | 100 to 500 | – | –
C[C@H]1CN(C(=O)C(C)(C)C)CCN1c1nccc2c1c(C1CC1)cn2-c1cccc(F)c1 [Compound 228, (S)-1-(4-(3-cyclopropyl-1-(3-fluorophenyl)-1H-pyrrolo[3,2-c]pyridin-4-yl)-3-methylpiperazin-1-yl)-2,2-dimethylpropan-1-one] | – | – | < 100 | < 100
C[C@@H]1CN(c2ncnc3c2c(N2CCC2)cn3-c2cc(F)cc(F)c2)[C@@H](C)CN1C(=O)C(C)(C)C [Compound 217, 1-((2R,5S)-4-(5-(azetidin-1-yl)-7-(3,5 difluorophenyl)-7H-pyrrolo[2,3-d]pyrimidin-4-yl)2,5-dimethylpiperazin-1-yl)-2,2-dimethylpropan-1-one] | – | – | < 100 | 100 to 500
C[C@H]1CN(C(=O)C(C)(C)F)CCN1c1ncnc2c1c(-c1ccccc1F)cn2-c1cc(C#N)ccn1 [Compound 125, (S)-2-(4-(4-(2-fluoro-2-methylpropanoyl)-2-methylpiperazin-1-yl)-5-(2-fluorophenyl)-7H-pyrrolo[2,3-d]pyrimidin-7-yl)isonicotinonitrile] | < 100 | < 100 | – | –
CC(C)C(=O)N1CCN(c2ncnc3c2c(-c2ccccc2F)cn3-c2cc(C#N)ccn2)[C@H](C)C1 [Compound 138, (R)-2-(5-(2-fluorophenyl)-4-(4-isobutyryl-2-methylpiperazin-1-yl)-7H-pyrrolo[2,3-d]pyrimidin-7-yl)isonicotinonitrile] | 100 to 500 | < 100 | – | –
C[C@H]1CN(C(=O)CCC(F)(F)F)CCN1c1ncnc2c1c(-c1ccccc1F)cn2-c1cc(C#N)ccn1 [Compound 135, (S)-2-(5-(2-fluorophenyl)-4-(2-methyl-4-(4,4,4-trifluorobutanoyl)piperazin-1-yl)-7H-pyrrolo[2,3-d]pyrimidin-7-yl)isonicotinonitrile] | < 100 | 100 to 500 | – | –
C[C@@H]1CN(c2ncnc3c2c(-c2ccccc2F)cn3-c2cc(C#N)ccn2)CCN1C(=O)C1CC1 [Compound 111, (R)-2-(4-(4-(cyclopropanecarbonyl)-3-methylpiperazin-1-yl)-5-(2-fluorophenyl)-7H-pyrrolo[2,3-d]pyrimidin-7-yl)isonicotinonitrile] | < 100 | – | – | –
CC(C)C(=O)N1C[C@H](C)N(c2ncnc3c2c(-c2ccccc2F)cn3-c2cc(C#N)ccn2)C[C@H]1C (single isomer, unassigned) [Compound 233] | – | – | < 100 | –
